Assay results: patent US20050096347A1, “Beta3-Adrenoreceptor agonists, agonist compositions and methods of using” (Molecular Design International, Inc., priority 1997, published 2005)
Structures can show the parent of a compound that is named as a salt. Where two headings read alike, the source gives them in different places.

How the values were obtained:
[1] = target: T1, rat-β3-AR (Rattus norvegicus, UniProt P26255); assay: cAMP accumulation in CHO cells expressing rat β3-AR; format: cell-based; settings: for EC50: read-out: pKact (−log EC50) for cAMP accumulation, rat-β3-AR (converted); for Emax: read-out: Emax, maximal cAMP accumulation
T1 construct: expressed in transfected cells; host or cells: CHO cells
Protocol: (§1) cAMP Radioimmunoassay (CAMP-RIA Assay). […] The precipitated protein was dissolved in 0.1N NaOH.

[2] = target: T1, rat-β3-AR; assay: Binding in CHO cells expressing rat β3-AR; settings: mean ± SEM (n in parentheses), read-out: pKi (−log Ki) for binding, rat-β3-AR (converted)
[3] = target: T2, Thromboxane A2/Prostaglandin H2 (TP) receptor (Homo sapiens, UniProt P21731); assay: Radioligand competition binding, TP receptor sites in human platelets ([3H]SQ 29,548); settings: for pKi ± SEM, Human TP receptors: [3H]SQ 29,548 as radioligand, platelets, N = 4-9; for P.R. (potency ratio), Human TP receptors: relative to cmpd. 1 (TMQ), PR = antilog [pKi(drug) − pKi(TMQ)]
T2 construct: endogenous in cells; host or cells: human platelets (from platelet rich plasma)
T2 sequence (P21731 1-343): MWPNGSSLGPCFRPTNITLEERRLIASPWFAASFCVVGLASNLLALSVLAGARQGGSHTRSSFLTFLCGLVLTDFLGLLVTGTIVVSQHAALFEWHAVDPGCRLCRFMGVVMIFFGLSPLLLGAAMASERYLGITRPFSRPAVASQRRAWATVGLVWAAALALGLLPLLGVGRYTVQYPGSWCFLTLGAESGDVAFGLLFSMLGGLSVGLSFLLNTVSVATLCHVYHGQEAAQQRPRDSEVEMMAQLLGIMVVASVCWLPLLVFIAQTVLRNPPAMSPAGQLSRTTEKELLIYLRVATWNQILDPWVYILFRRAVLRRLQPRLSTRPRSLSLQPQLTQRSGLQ
Protocol: For binding experiments, human platelet rich plasma (PRP) was centrifuged and re-suspended in 50 mM Tris-saline buffer, pH 7.4. […] Filters were placed in plastic scintillation vials containing 10 mL of an emulsion-type scintillation mixture and radioactivity measured by liquid scintillation spectrometry.

[4] = target: T3, human β2 Adrenoreceptor (Homo sapiens, UniProt P07550); assay: Radioligand competition binding, human β2 adrenoreceptor expressed in CHO cells ([125I]ICYP); settings: for pKi ± SEM, Human β2 Adrenoreceptor CHO: [125I]ICYP as radioligand, N = 4-9; for P.R. (potency ratio), Human β2 Adrenoreceptor CHO: relative to cmpd. 1 (TMQ), PR = antilog [pKi(drug) − pKi(TMQ)]; for pKi ± SEM, Human β2-AR: CHO cells, [125I]ICYP, N = 3-9 (Table 5)
T3 construct: expressed in transfected cells

[5] = target: β2-AR (Rattus norvegicus, UniProt P10608); assay: Relaxation of carbachol-precontracted isolated rat tracheal strips; settings: for I.A. (intrinsic activity), Trachea: maximal response relative to maximal response of (−)-isoproterenol
Protocol: (§2) Male Sprague Dawley rats (Harlan Industries, Cumberland, Ind.) housed under a 12 hour light/dark cycle and fed Purina Rodent Laboratory Chow (Ralston Purina., St. Louis, Mo.) and water ad libitum, were used for the studies. […] All tissues were suspended and equilibrated in modified Kreb's buffer in water-jacketed baths at 37° C. Resting tensions of 1 g for right atria, trachea and aorta, and of 200 mg for esophageal smooth muscle were used. All tissue responses were measured on a Grass Polygraph Model 7C with a Grass FT-03C isometric force-displacement transducer.
(§3) Carbachol-precontracted tissues were included as controls through the duration of relaxation studies.

[6] = target: β1-AR (Rattus norvegicus, UniProt P18090); assay: Chronotropic responses of spontaneously beating isolated rat right atria
Protocol: as §2
The tissue was again washed 6-7 times with 10 ml of buffer, followed by repeated washes every 10-15 min.

[7] = target: Atypical-β/β3-AR (Rattus norvegicus, UniProt P26255); assay: Relaxation of carbachol-precontracted rat esophageal smooth muscle; settings: for I.A. (intrinsic activity), Esophageal Smooth Muscle (Atypical-β/β3-AR): maximal response relative to maximal response of (−)-isoproterenol
Protocol: as §2, §3

[8] = target: human β1 Adrenoreceptor (Homo sapiens, UniProt P08588); assay: Radioligand competition binding, human β1 adrenoreceptor expressed in CHO cells ([125I]ICYP)
Protocol: Competitive and comparative binding experiments on β1 Adrenoreceptors, β2 Adrenoreceptors and β3-Adrenoreceptors expressed in CHO cells were performed as described previously. […] CHO cells grown to a confluence in 150-mL flasks were detached into Ham's F-12 medium after treatment with 0.05% trypsin-0.53 mM EDTA solution. The cells were then pelleted and washed three times with Tris-EDTA buffer (50 mM Tris-HCl, 150 mM NaCl, 20 mM EDTA, pH 7.4) and resuspended in the same buffer.
Competition binding experiments were performed in duplicates using these whole cells. […] The final volume in each tube was 0.25 mL. Nonspecific binding (5-30%) was determined in the presence of 1 μM (±)-propranolol. Incubations were carried out for 60 min at 37° C. Binding reactions were terminated by rapid filtration through Whatman GF/B glass fiber filters on a Brandel model 12-R tissue harvester. Filters were washed twice with ice cold Tris-EDTA buffer to remove free ICYP. The filters were dried under tissue harvester vacuum and radioactivity was measured by gamma scintillation spectrometry (Beckman model 8000 gamma counter, Palo Alto, Calif.). Specific binding to β Adrenoreceptor sites in these cells varied from 94 to 100%
Inhibitory concentration-50 (IC50) value of each competing drug was determined graphically from individual plots of percent radioligand bound versus log drug concentration on O-adrenoceptors and human platelets. […] Dissociation constants (Ki) for each competing drug were calculated using the equation: [formula] and the data expressed as pKi (i.e., −log Ki) values.

[9] = target: T4, Human β3 Adrenoreceptors (Homo sapiens, UniProt P13945); assay: hβ3 cAMP functional activity in CHO cells expressing human β3 adrenoreceptors (Table 8); format: cell-based; settings: for EC50: read-out: hβ3 cAMP EC50(nM) +/−SEM
T4 construct: expressed in transfected cells

[10] = target: T5, Human β3-AR (Homo sapiens, UniProt P13945); assay: cAMP radioimmunoassay (cAMP-RIA), CHO cells expressing human β3-AR; format: cell-based; parameters: expressed in transfected cells; settings: for I.A., Human β3-AR, cAMP-RIA assay: percentage of maximal response of R-(−)-isoproterenol (100%)
Protocol: as §1

[11] = target: T5, Human β3-AR; assay: CRE-luciferase reporter gene (CRE-LUC) assay, CHO cells expressing human β3-AR
Protocol: (§4) cAMP response element (CRE)-luciferase(LUC) reporter gene (CRE-LUC) assay. […] The transfected CHO cells were seeded at a density of 40,000/well in 96 well microtiter plates (Culturplate, Packard) and allowed to grow for 20 hours. After 20 hours, the cells were treated with varying drug concentrations (10^−11 to 10^−4 M) for 4 hours. Following drug exposures, the cells were lysed and luciferase activity measured using the LucLite® assay kit (Packard). Changes in light production were measured by a Topcount® luminometer (Packard).

[12] = target: Human β2-AR (Homo sapiens, UniProt P07550); assay: CRE-luciferase reporter gene (CRE-LUC) assay, CHO cells expressing human β2-AR; settings: percentage of maximal response of R-(−)-isoproterenol (Table 6 B)
Protocol: as §4

[13] = target: T6, human β3-Adrenoreceptor (Homo sapiens, UniProt P13945); assay: Radioligand competition binding, human β3 adrenoreceptor expressed in CHO cells ([125I]ICYP); settings: N = 3-9 (Table 5)
T6 construct: expressed in transfected cells

[14] = target: Human β1-AR (Homo sapiens, UniProt P08588); assay: cAMP radioimmunoassay (cAMP-RIA), CHO cells expressing human β1-AR; format: cell-based; parameters: expressed in transfected cells; settings: percentage of maximal response of R-(−)-isoproterenol (100%)
Protocol: as §1

[15] = CHO cells, mean ± SEM (n in parentheses)
[16] = relative to that of (−)-isoproterenol, CHO cells expressing rat-β3-AR
[17] = CHO cells (Table 8), read-out: hβ2 Binding ki
[18] = CHO cells, N.A. = Not active at 100 μM, N = 4-12, read-out: pKact ± SEM, Human β3-AR, cAMP-RIA assay (converted)

Chain of Atypical-β/β3-AR (P26255 whole entry): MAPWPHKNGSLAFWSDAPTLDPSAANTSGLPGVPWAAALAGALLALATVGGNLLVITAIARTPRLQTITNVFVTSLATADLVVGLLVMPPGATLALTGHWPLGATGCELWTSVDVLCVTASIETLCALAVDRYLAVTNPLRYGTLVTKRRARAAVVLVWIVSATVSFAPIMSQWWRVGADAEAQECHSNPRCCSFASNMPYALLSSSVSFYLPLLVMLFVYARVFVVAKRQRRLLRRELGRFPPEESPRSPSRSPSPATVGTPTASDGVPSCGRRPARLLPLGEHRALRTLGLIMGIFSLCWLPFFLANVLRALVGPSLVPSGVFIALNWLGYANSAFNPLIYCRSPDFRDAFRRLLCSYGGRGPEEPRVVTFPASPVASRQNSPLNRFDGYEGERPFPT
T1 sequence (P26255 whole entry): as above
T3 sequence (P07550 whole entry): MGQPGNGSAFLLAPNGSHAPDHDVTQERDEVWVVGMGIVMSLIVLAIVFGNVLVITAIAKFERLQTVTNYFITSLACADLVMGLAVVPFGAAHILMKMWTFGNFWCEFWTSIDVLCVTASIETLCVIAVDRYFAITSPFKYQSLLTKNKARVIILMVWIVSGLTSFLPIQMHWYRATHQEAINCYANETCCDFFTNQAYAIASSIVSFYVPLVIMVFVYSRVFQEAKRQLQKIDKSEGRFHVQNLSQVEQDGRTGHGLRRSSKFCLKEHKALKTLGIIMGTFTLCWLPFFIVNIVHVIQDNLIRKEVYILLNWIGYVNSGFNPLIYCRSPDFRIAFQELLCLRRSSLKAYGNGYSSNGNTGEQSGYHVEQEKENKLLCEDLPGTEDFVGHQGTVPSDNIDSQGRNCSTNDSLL
Chain of β2-AR (P10608 whole entry): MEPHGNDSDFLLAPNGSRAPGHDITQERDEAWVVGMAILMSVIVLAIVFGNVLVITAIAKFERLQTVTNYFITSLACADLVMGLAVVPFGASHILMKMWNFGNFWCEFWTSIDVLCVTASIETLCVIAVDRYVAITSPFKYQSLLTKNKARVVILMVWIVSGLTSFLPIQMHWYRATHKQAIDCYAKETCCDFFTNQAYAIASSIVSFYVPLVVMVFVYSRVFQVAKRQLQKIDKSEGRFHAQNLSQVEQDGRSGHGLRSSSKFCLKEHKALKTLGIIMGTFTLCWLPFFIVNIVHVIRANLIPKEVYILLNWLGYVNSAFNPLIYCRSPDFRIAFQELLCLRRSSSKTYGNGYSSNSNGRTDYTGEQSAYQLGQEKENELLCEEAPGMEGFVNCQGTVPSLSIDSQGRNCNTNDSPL
T4 sequence (P13945 whole entry): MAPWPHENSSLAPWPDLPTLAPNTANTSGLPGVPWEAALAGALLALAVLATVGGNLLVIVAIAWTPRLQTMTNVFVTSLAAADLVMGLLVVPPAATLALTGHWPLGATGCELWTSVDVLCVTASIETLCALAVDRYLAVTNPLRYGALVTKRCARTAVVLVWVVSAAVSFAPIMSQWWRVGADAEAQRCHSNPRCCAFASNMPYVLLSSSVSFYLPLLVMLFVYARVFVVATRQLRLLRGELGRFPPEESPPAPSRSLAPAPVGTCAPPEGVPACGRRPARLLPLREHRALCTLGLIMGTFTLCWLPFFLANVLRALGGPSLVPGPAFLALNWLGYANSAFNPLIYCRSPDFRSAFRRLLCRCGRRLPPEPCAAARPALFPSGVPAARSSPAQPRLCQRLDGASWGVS
T5 sequence (P13945 whole entry): as above
Chain of human β1 Adrenoreceptor (P08588 whole entry): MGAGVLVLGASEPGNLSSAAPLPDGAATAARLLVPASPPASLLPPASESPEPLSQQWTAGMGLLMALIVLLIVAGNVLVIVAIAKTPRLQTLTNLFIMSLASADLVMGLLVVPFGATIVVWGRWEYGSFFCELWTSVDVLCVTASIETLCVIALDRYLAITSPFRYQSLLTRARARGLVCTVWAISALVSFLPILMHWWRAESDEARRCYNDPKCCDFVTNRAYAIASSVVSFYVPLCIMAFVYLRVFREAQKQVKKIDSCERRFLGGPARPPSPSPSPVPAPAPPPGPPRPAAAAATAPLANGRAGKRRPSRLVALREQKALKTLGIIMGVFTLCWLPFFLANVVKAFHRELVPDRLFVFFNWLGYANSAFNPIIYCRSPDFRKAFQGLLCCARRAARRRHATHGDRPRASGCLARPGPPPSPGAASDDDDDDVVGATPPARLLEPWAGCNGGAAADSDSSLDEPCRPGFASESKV
Chain of Human β1-AR (P08588 whole entry): as above
Chain of β1-AR (P18090 whole entry): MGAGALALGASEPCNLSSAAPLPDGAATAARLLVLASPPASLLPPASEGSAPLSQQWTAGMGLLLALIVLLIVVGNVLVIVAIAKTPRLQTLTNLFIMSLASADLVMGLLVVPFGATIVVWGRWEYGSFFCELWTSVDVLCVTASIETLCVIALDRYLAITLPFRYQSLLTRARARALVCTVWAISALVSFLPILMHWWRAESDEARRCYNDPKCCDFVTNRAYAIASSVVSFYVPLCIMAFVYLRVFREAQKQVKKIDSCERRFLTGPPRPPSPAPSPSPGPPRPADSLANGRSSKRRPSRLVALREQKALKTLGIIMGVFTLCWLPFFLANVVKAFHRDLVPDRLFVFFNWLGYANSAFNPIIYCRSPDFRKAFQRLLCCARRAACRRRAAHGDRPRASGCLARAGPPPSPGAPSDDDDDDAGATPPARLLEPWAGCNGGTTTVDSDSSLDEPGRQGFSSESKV
T6 sequence (P13945 whole entry): as the sequence (P13945 whole entry) above
Chain of Human β2-AR (P07550 whole entry): as the sequence (P07550 whole entry) above

COc1cc2c(cc1OC)C(Cc1cc(OC)c(OC)c(OC)c1)NCC2 (centres unmarked) [6,7-Dimethoxy TMQ, reference compound]
pKact (−log EC50) for cAMP accumulation, rat-β3-AR [1, 15]: no activity upto 3 × 10^−5 M
Ki [2]: 132000 nM

COc1cc(CC2NCCc3cc4c(cc32)OCO4)cc(OC)c1OC (centres unmarked) [6,7-Methylenedioxy TMQ]
EC50 [1, 15]: 1200 nM
Emax [1, 16]: 70.9 ± 4.41%
Ki [2]: 51300 nM

Cl.Cl.Nc1c(I)cc(CC2NCCc3cc(O)c(O)cc32)cc1I (centres unmarked) [Compound 21c, 1-(4-Amino-3,5-diiodobenzyl)-6,7-dihydroxy-1,2,3,4-tetrahydroisoquinoline Dihydrochloride]
Ki [2]: 724 nM
fold reduction in TP receptor binding affinity compared to 2 [3]: 3 fold
pKi ± SEM, Human TP receptors [3]: 6.73
P.R. (potency ratio), Human TP receptors [3]: 0.87
pKi ± SEM, Human β2 Adrenoreceptor CHO [4]: 8.81
P.R. (potency ratio), Human β2 Adrenoreceptor CHO [4]: 28

Br.CC(=O)Nc1c(I)cc(CC2NCCc3cc(O)c(O)cc32)cc1I (centres unmarked) [Compound 15, 1-(4-Acetamido-3,5-diiodobenzyl)-6,7-dihydroxy-1,2,3,4-tetrahydroisoquinoline Hydrobromide]
EC50 [1, 15]: 0.457 nM
Emax [1, 16]: 89.6 ± 6.93%
Ki [2]: 52.5 nM
EC50 [5]: 0.603 nM
I.A. (intrinsic activity), Trachea [5]: 0.84 ± 0.02
pKi ± SEM, Human TP receptors [3]: 6.45
EC50 [6]: 1.1 nM
I.A. (intrinsic activity), Right Atria (β-AR) ([6]; maximal response relative to maximal response of (−)-isoproterenol): 0.93 ± 0.04
EC50 [7]: 2.09 nM
I.A. (intrinsic activity), Esophageal Smooth Muscle (Atypical-β/β3-AR) [7]: 0.99 ± 0.03
pKi ± SEM, Human β2 Adrenoreceptor CHO [4]: 8.06

CC(=O)Nc1ccc(CC2NCCc3cc(O)c(O)cc32)cc1I.I (centres unmarked) [Compound 26a, 1-(4-Acetamido-3-iodobenzyl)-6,7-dihydroxy-1,2,3,4-tetrahydroisoquinoline Hydroiodide]
fold decrease in TP receptor binding affinity on removal of one iodine (24 vs 21c, 26a vs 15) [3]: 5 fold
pKi ± SEM, Human TP receptors [3]: 5.83
P.R. (potency ratio), Human TP receptors [3]: 0.11
pKi ± SEM, Human β2 Adrenoreceptor CHO [4]: 8.11
P.R. (potency ratio), Human β2 Adrenoreceptor CHO [4]: 5.6

[N-]=[N+]=Nc1ccc(CC2NCCc3cc(O)c(O)cc32)cc1I (centres unmarked)
Ki [8]: 14.2 nM
hβ3 cAMP % Iso +/−SEM [9]: 81 +/− 3 % Iso
EC50 [9]: 46 nM
Ki [4, 17]: 24 nM

COc1cc(CC2NCCc3nc(N)sc32)cc(OC)c1OC (centres unmarked)
Ki [8]: > 3000 nM
EC50 [9]: > 3160 nM
Ki [4, 17]: > 3000 nM

COc1c(I)cc(CC2NCCc3cc(O)ccc32)cc1I (centres unmarked) [drawing 83]
Ki [8]: 278 nM
hβ3 cAMP % Iso +/−SEM [9]: 89 +/− 5 % Iso
EC50 [9]: 33.5 nM
Ki [4, 17]: 47 nM

CC(C)NC[C@H](O)c1ccc(O)c(O)c1 (single isomer, unassigned) [(−)Isoproterenol, isoproterenol, reference compound]
Emax ([1]; CHO): 100%
I.A. (intrinsic activity), Trachea [5]: 1.00
I.A., Human β3-AR, cAMP-RIA assay [10]: 100%
I.A. (intrinsic activity), Esophageal Smooth Muscle (Atypical-β/β3-AR) [7]: 1.00

COc1c(I)cc(CC2NCCc3cc(O)c(O)cc32)cc1I (centres unmarked) [drawing 80]
EC50 [9]: < 4 nM
Ki [4, 17]: 3.1 nM

COc1c(I)cc(CC2NCCc3nc(N)sc32)cc1I.Cl.Cl (centres unmarked) [9 (B-28), 2-Amino-4-(3′,5′-diiodo-4′-methoxyphenylmethyl)-4,5,6,7-tetrahydrothiazolo[5,4-c]pyridine Dihydrochloride]
EC50 [11]: 195 nM
I.A., Human β3-AR, CRE-LUC assay ([11]; percentage of maximal response of R-(−)-isoproterenol (Table 6 B)): 62 ± 3%
EC50 [10, 18]: 112 nM
I.A., Human β3-AR, cAMP-RIA assay [10]: 67 ± 3%
I.A. ± SEM, Human β2-AR, CRE-LUC assay [12]: <15%
pKi ± SEM, Human β3-AR [13]: 5.83 ± 0.15
pKi ± SEM, Human β2-AR [4]: 6.37 ± 0.08

Cl.Oc1cc2c(cc1O)C(Cc1cc(C(F)(F)F)cc(C(F)(F)F)c1)NCC2 (centres unmarked) [Compound 27, 1-(3,5-Bis-trifluoromethylbenzyl)-6,7-dihydroxy-1,2,3,4-tetrahydroisoquinoline Hydrochloride]
pKi ± SEM, Human TP receptors [3]: 4.08 ± 0.02
P.R. (potency ratio), Human TP receptors [3]: 0.002
pKi ± SEM, Human β2 Adrenoreceptor CHO [4]: 5.36
P.R. (potency ratio), Human β2 Adrenoreceptor CHO [4]: 0.01

I.O=C(Nc1ccc(CC2NCCc3cc(O)c(O)cc32)cc1I)c1ccccc1 (centres unmarked) [Compound 26b, 1-(4-Benzoylamino-3-iodobenzyl)-6,7-dihydroxy-1,2,3,4-tetrahydroisoquinoline Hydroiodide]
pKi ± SEM, Human TP receptors [3]: 5.27 ± 0.13
P.R. (potency ratio), Human TP receptors [3]: 0.03
pKi ± SEM, Human β2 Adrenoreceptor CHO [4]: 8.70
P.R. (potency ratio), Human β2 Adrenoreceptor CHO [4]: 22

Br.Oc1cc2c(cc1O)C(Cc1cc(I)c(O)c(I)c1)NCC2 (centres unmarked) [Compound 18, 6,7-Dihydroxy-1-(4-hydroxy-3,5-diiodobenzyl)-1,2,3,4-tetrahydroisoquinoline Hydrobromide]
pKi ± SEM, Human TP receptors [3]: 4.72
pKi ± SEM, Human β2 Adrenoreceptor CHO [4]: 7.93

COc1c(I)cc(CC2NCCc3nc(N)sc32)cc1I (centres unmarked)
EC50 [9]: 506 nM
Ki [4]: 534 nM

COc1c(I)cc(CC2NCCc3cc(O)c(O)cc32)cc1I (centres unmarked) [Compound 2, reference compound]
EC50 [1, 15]: 0.398 nM
Emax [1, 16]: 96.9 ± 10.1%
Ki [2]: 457 nM
pKi ± SEM, Human TP receptors [3]: 7.33

COc1cc(CC2NCCc3nc(N)sc32)cc(OC)c1OC.Cl.Cl (centres unmarked) [7 (B-29), 2-Amino-4-(3′,4′,5′-trimethoxyphenylmethyl)-4,5,6,7-tetrahydro-thiazolo[5,4-c]pyridine Dihydrochloride]
pKi ± SEM, Human β1-AR ([8]; CHO cells, [125I]ICYP, N = 3-9 (Table 5)): 5.21 ± 0.08
EC50 [10, 18]: 8710 nM
I.A., Human β3-AR, cAMP-RIA assay [10]: 54 ± 1%
I.A. ± SEM, Human β1-AR, cAMP-RIA assay [14]: <10%
pKi ± SEM, Human β3-AR [13]: 4.17 ± 0.05
pKi ± SEM, Human β2-AR [4]: 6.21 ± 0.12

COc1c(I)cc(CC2NCCc3nc(NC(C)=O)sc32)cc1I.O=C(O)/C=C\C(=O)O (centres unmarked) [Compound 10]
I.A., Human β3-AR, cAMP-RIA assay [10]: <10%
I.A. ± SEM, Human β1-AR, cAMP-RIA assay [14]: <10%

COc1cc(CC2NCCc3cc(O)c(O)cc32)cc(OC)c1OC (centres unmarked)
EC50 [9]: < 1 nM

Nc1c(I)cc(CC2NCCc3cc(O)c(O)cc32)cc1I (centres unmarked)
Ki [8]: 63.4 nM
hβ3 cAMP % Iso +/−SEM [9]: 108 +/− 2 % Iso
EC50 [9]: < 4 nM

COc1cc2c(cc1OC)C(Cc1cc(I)c(NC(C)=O)c(I)c1)NCC2 (centres unmarked) [6,7-Dimethoxy-acetamidoDITMQ, 1-(4-Acetamido-3,5-diiodobenzyl)-6,7-dimethoxy-1,2,3,4-tetrahydroisoquinoline Hydrochloride]
Ki [2]: 14500 nM

Br.Oc1cc2c(cc1O)C(Cc1cc(I)c(I)c(I)c1)NCC2 (centres unmarked) [Compound 21b, 6,7-Dihydroxy-1-(3,4,5-triiodobenzyl)-1,2,3,4-tetrahydroisoquinoline Hydrobromide]
pKi ± SEM, Human TP receptors [3]: 4.22
P.R. (potency ratio), Human TP receptors [3]: 0.003
pKi ± SEM, Human β2 Adrenoreceptor CHO [4]: 8.82
P.R. (potency ratio), Human β2 Adrenoreceptor CHO [4]: 29

Oc1cc2c(cc1O)C(Cc1cc(I)cc(I)c1)NCC2 (centres unmarked) [DemethoxyDITMQ]
EC50 [1, 15]: 1.82 nM
Emax [1, 16]: 97.7 ± 5.85%
Ki [2]: 1580 nM

COc1cc(CC2NCCc3cc(O)c(O)cc32)cc(OC)c1OC (racemic) [Compound 1, trimetoquinol, reference compound]
EC50 [10]: 2.51 nM
I.A. ± SEM, Human β1-AR, cAMP-RIA assay [14]: 109 ± 10%
